# What was measured:
# Test in all cases: Bliss excess, mean over the matrix (fraction); higher = more synergy
# [1] = test system: RERF-LC-Sq1 (Squamous Cell Lung Carcinoma)
# Summary of the method: (§1)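 Cell lines grown in DMEM/F12 or RPMI with 10% FBS were plated in 1536-well plates and held 24 hours at 37°C, 5% CO2 before 72 hours of exposure to two-drug dose matrices, with DMSO typically at 0.2%. CellTiter-Glo 2.0 luminescence gave viability, which was converted to inhibition. Vehicle wells were set to 0 and blank wells to 1. Combination Emax is the second-highest inhibition in the matrix, and Bliss excess is the observed combination effect minus the expected EA + EB − EA·EB, where EA and EB are the single-agent effects.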
# [2] = test system: NCI-H2342 (Lung Adenocarcinoma)
# Summary of the method: as §1
# [3] = test system: CAL-62 (Thyroid Gland Carcinoma)
# Summary of the method: as §1
# [4] = test system: RERF-GC-1B (Gastric Carcinoma)
# Summary of the method: as §1
# [5] = test system: RCM-1 (Colorectal Carcinoma)
# Summary of the method: as §1
# [6] = test system: TE-8 (Esophageal Squamous Cell Carcinoma)
# Summary of the method: as §1
Compound,Bliss excess [1],Bliss excess [2],Bliss excess [3],Bliss excess [4],Bliss excess [5],Bliss excess [6]
"Cc1c2c(nn1C)CSCc1cc(n(C)n1)CSc1cc(c3ccccc3c1)OCCCc1c(C(=O)O)n(C)c3c-2c(Cl)ccc13 [AZD5991] + CC1(C)CCC(CN2CCN(c3ccc(C(=O)NS(=O)(=O)c4ccc(NCC5CCOCC5)c([N+](=O)[O-])c4)c(Oc4cnc5[nH]ccc5c4)c3)CC2)=C(c2ccc(Cl)cc2)C1 [Venetoclax] (first compound max 1 µM, 7x7, partner max 1 µM)",-0.0191,-0.0599,-0.0325,-0.0126,0.0136,0.0098
"Cc1c2c(nn1C)CSCc1cc(n(C)n1)CSc1cc(c3ccccc3c1)OCCCc1c(C(=O)O)n(C)c3c-2c(Cl)ccc13 [AZD5991] + CCN(CCO)CCCOc1ccc2c(Nc3cc(CC(=O)Nc4cccc(F)c4)[nH]n3)ncnc2c1 [AZD2811] (first compound max 1 µM, 7x7, partner max 1 µM)",0.043,-0.0613,0.0397,0.014,-0.0249,-0.0138
"Cc1c2c(nn1C)CSCc1cc(n(C)n1)CSc1cc(c3ccccc3c1)OCCCc1c(C(=O)O)n(C)c3c-2c(Cl)ccc13 [AZD5991] + CN(C)CCCOc1ccc(-c2ccc3ncc4c(c3c2)n(C2CCOCC2)c(=O)n4C)cn1 [AZD0156] (first compound max 1 µM, 7x7, partner max 1 µM)",0.0372,-0.016,-0.0061,0.0263,-0.0105,-0.0172
"Cc1c2c(nn1C)CSCc1cc(n(C)n1)CSc1cc(c3ccccc3c1)OCCCc1c(C(=O)O)n(C)c3c-2c(Cl)ccc13 [AZD5991] + Cc1cc2ncnn2cc1Nc1ncc2c(n1)n(C1CCOCC1)c(=O)n2C [AZD7648] (first compound max 1 µM, 7x7, partner max 10 µM)",-0.0088,-0.0535,-0.0187,-0.0085,-0.0149,-0.069
"Cc1c2c(nn1C)CSCc1cc(n(C)n1)CSc1cc(c3ccccc3c1)OCCCc1c(C(=O)O)n(C)c3c-2c(Cl)ccc13 [AZD5991] + Cn1cnc2c(F)c(Nc3ccc(Br)cc3Cl)c(C(=O)NOCCO)cc21 [Selumetinib] (first compound max 1 µM, 7x7, partner max 3 µM)",0.0048,-0.0673,-0.0174,0.034,0.0025,-0.0435
"C[C@@H]1COCCN1c1cc(C2([S@](C)(=N)=O)CC2)nc(-c2ccnc3[nH]ccc23)n1 [AZD6738] + O=C(c1cc(Cc2n[nH]c(=O)c3ccccc23)ccc1F)N1CCN(C(=O)C2CC2)CC1 [Olaparib] (first compound max 10 µM, 7x7, partner max 10 µM)",-0.0101,-0.0089,0.0428,-0.0439,-0.101,-0.0218
"Cc1cc2ncnn2cc1Nc1ncc2c(n1)n(C1CCOCC1)c(=O)n2C [AZD7648] + C=CCn1c(=O)c2cnc(Nc3ccc(N4CCN(C)CC4)cc3)nc2n1-c1cccc(C(C)(C)O)n1 [AZD1775] (first compound max 10 µM, partner max 1 µM)",0.0053,-0.0023,0.0057,-0.0936,0.0248,0.0308
"Cc1cc2ncnn2cc1Nc1ncc2c(n1)n(C1CCOCC1)c(=O)n2C [AZD7648] + CCN(CCO)CCCOc1ccc2c(Nc3cc(CC(=O)Nc4cccc(F)c4)[nH]n3)ncnc2c1 [AZD2811] (first compound max 10 µM, 7x7, partner max 1 µM)",-0.0048,-0.0084,0.0427,0.0209,-0.032,0.0717
"Cc1cc2ncnn2cc1Nc1ncc2c(n1)n(C1CCOCC1)c(=O)n2C [AZD7648] + CN(C)CCCOc1ccc(-c2ccc3ncc4c(c3c2)n(C2CCOCC2)c(=O)n4C)cn1 [AZD0156] (first compound max 10 µM, 7x7, partner max 1 µM)",0.0114,-0.0237,0.0145,-0.0141,-0.0041,-0.0453
"Cc1cc2ncnn2cc1Nc1ncc2c(n1)n(C1CCOCC1)c(=O)n2C [AZD7648] + C[C@@H]1COCCN1C2=NC(=NC(=C2)C3(CC3)[S@](=N)(=O)C)C4=C5C=CNC5=NC=C4 [AZD6738] (first compound max 10 µM, 7x7, partner max 10 µM)",-0.0231,0.0271,0.0264,0.0094,0.0223,-0.0122
"Cc1cc2ncnn2cc1Nc1ncc2c(n1)n(C1CCOCC1)c(=O)n2C [AZD7648] + O=C(c1cc(Cc2n[nH]c(=O)c3ccccc23)ccc1F)N1CCN(C(=O)C2CC2)CC1 [Olaparib] (first compound max 10 µM, 7x7, partner max 10 µM)",-0.0095,-0.0548,-0.03,-0.076,-0.0789,-0.0413
"COc1cccc2c1C(=O)c1c(O)c3c(c(O)c1C2=O)C[C@@](O)(C(=O)CO)C[C@@H]3O[C@H]1C[C@H](N)[C@H](O)[C@H](C)O1 [Doxorubicin] + Cc1cc2ncnn2cc1Nc1ncc2c(n1)n(C1CCOCC1)c(=O)n2C [AZD7648] (first compound max 1 µM, 7x7, partner max 10 µM)",0.0444,0.0128,0.0885,-0.0142,0.0199,0.0947
"COc1cccc(OCCCN)c1-c1cc(Nc2cnc(C#N)cn2)n[nH]1 [Prexasertib] + C=CCn1c(=O)c2cnc(Nc3ccc(N4CCN(C)CC4)cc3)nc2n1-c1cccc(C(C)(C)O)n1 [AZD1775] (first compound max 1 µM, partner max 1 µM)",0.0621,-0.0136,0.137,0.049,-0.0248,0.0893
"COc1cccc(OCCCN)c1-c1cc(Nc2cnc(C#N)cn2)n[nH]1 [Prexasertib] + CCc1c2c(nc3ccc(O)cc13)-c1cc3c(c(=O)n1C2)COC(=O)[C@]3(O)CC [SN-38] (first compound max 1 µM, 7x7, partner max 0.3 µM)",-0.0081,-0.0703,-0.0543,0.0318,-0.0729,0.0456
"COc1cccc(OCCCN)c1-c1cc(Nc2cnc(C#N)cn2)n[nH]1 [Prexasertib] + CN(C)CCCOc1ccc(-c2ccc3ncc4c(c3c2)n(C2CCOCC2)c(=O)n4C)cn1 [AZD0156] (first compound max 1 µM, 7x7, partner max 1 µM)",-0.0209,-0.0272,-0.0364,0.0049,-0.0358,-0.0033
"COc1cccc(OCCCN)c1-c1cc(Nc2cnc(C#N)cn2)n[nH]1 [Prexasertib] + C[C@@H]1COCCN1C2=NC(=NC(=C2)C3(CC3)[S@](=N)(=O)C)C4=C5C=CNC5=NC=C4 [AZD6738] (first compound max 1 µM, 7x7, partner max 10 µM)",-0.0492,0.0378,-0.005,-0.119,-0.0307,-0.0122
"COc1cccc(OCCCN)c1-c1cc(Nc2cnc(C#N)cn2)n[nH]1 [Prexasertib] + Cc1cc2ncnn2cc1Nc1ncc2c(n1)n(C1CCOCC1)c(=O)n2C [AZD7648] (first compound max 1 µM, 7x7, partner max 10 µM)",-0.0281,-0.0216,-0.0128,0.0015,-0.0166,-0.0448
"COc1cccc(OCCCN)c1-c1cc(Nc2cnc(C#N)cn2)n[nH]1 [Prexasertib] + O=C(c1cc(Cc2n[nH]c(=O)c3ccccc23)ccc1F)N1CCN(C(=O)C2CC2)CC1 [Olaparib] (first compound max 1 µM, 7x7, partner max 10 µM)",-0.0373,-0.0509,-0.0031,-0.0275,-0.196,-0.075
"COc1cc2c(cc1OCCCCCOc1cc3c(cc1OC)C(=O)N1C=C(C)C[C@H]1C=N3)N=C[C@@H]1CC(C)=CN1C2=O [SG3199] + O=C(c1cc(Cc2n[nH]c(=O)c3ccccc23)ccc1F)N1CCN(C(=O)C2CC2)CC1 [Olaparib] (first compound max 0.001 µM, 7x7, partner max 10 µM)",0.0049,-0.0569,-0.0342,0.0263,-0.0371,-0.049
"CCc1c2c(nc3ccc(O)cc13)-c1cc3c(c(=O)n1C2)COC(=O)[C@]3(O)CC [SN-38] + CN(C)CCCOc1ccc(-c2ccc3ncc4c(c3c2)n(C2CCOCC2)c(=O)n4C)cn1 [AZD0156] (first compound max 0.3 µM, 7x7, partner max 1 µM)",0.114,-0.0425,-0.0143,0.0092,-0.0005,0.148

# — the supplement of paper PMC11061612
